# Laboratory results from article PMC9304322, “Targeting retinoic acid receptor alpha-corepressor interaction activates chaperone-mediated autophagy and protects against retinal degeneration” (Nature Communications, 2022).
# Values joined by “and” are separate entries in the source; they are usually repeats but may differ in a detail not shown here. Equal entries are not always repeated. Where two headings read alike, the source gives them in different places.
# Assay: Pharmacokinetic analysis, plasma and brain;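 on Fig. 3a level, MEAN: plasma concentration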;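 on Fig. 3a level, single animals 1-3: plasma concentration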;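 on Fig. 3b level, MEAN: brain concentration in ng/g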;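 on Fig. 3b level, single animals 1-3: brain concentration in ng/g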
# Type: in vivo, ICR (CD-1) male mice
# Set-up: Fig. 3a level, single animals 1-3 / Fig. 3a level, MEAN / Fig. 3b level, single animals 1-3 / Fig. 3b level, MEAN: unit not given here
# Settings: for Kp at 0.083 h / Kp at 0.25 h / Kp at 0.5 h / Kp at 1 h / Kp at 2 h / Kp at 4 h / Kp at 8 h / half-life: male, ICR (CD-1), mouse; for half-life: mice
# Description: ICR (CD-1) male mice were fasted at least three hours and water was available ad libitum before the study. Animals were housed in a controlled environment, target conditions: temperature 18 to 29 °C, relative humidity 30 to 70%. Temperature and relative humidity was monitored daily. An electronic time-controlled lighting system was used to provide a 12 h light/12 h dark cycle. 3 mice for each indicated time point were administered 30 mg/Kg CA39 or CA77 by oral gavage or 1 mg/Kg CA39 or CA77 by intravenous injection using 30% PEG-400, 65% D5W (5% dextrose in water), 5% Tween-80 vehicle. Mice were sacrificed, and brain samples were harvested at […], 0.25 h, 0.5 h, 1 h, 2 h, 4 h, 8 h, 24 h, and analyzed for CA39 or CA77 levels using LC-MS/MS. Pharmacokinetics parameters were calculated using Phoenix WinNonlin 6.3. Experiments performed at SIMM-SERVIER joint Biopharmacy Laboratory.
smiles,measurement,setting,value
CC(=O)Nc1ccc(C2=Nc3ccc(Cl)cc3OC2)cc1 [CA77],"Fig. 3a level, MEAN","IV, Time 0.25 h",30.2
same,"Fig. 3a level, single animals 1-3","IV, Time 0.25 h",27.2 and 43.9 and 19.5
same,"Fig. 3b level, MEAN","IV, Time 0.25 h",3653.67
same,"Fig. 3b level, single animals 1-3","IV, Time 0.25 h",3391 and 5173 and 2397
same,"Fig. 3a level, MEAN","IV, Time 0.5 h",17.9
same,"Fig. 3a level, single animals 1-3","IV, Time 0.5 h",17.2 and 14.6 and 21.9
same,"Fig. 3b level, MEAN","IV, Time 0.5 h",2647.67
same,"Fig. 3b level, single animals 1-3","IV, Time 0.5 h",2198 and 2795 and 2950
same,"Fig. 3a level, MEAN","IV, Time 1 h",17.4333
same,"Fig. 3a level, single animals 1-3","IV, Time 1 h",15.5 and 21.5 and 15.3
same,"Fig. 3b level, MEAN","IV, Time 1 h",2521.11
same,"Fig. 3b level, single animals 1-3","IV, Time 1 h",2758.39 and 2650.88 and 2154.07
same,"Fig. 3a level, MEAN","IV, Time 2 h",4.363
same,"Fig. 3a level, single animals 1-3","IV, Time 2 h",7.54 and 1.71 and 3.84
same,"Fig. 3b level, MEAN","IV, Time 2 h",658.667
same,"Fig. 3b level, single animals 1-3","IV, Time 2 h",773 and 411 and 792
same,"Fig. 3a level, MEAN","IV, Time 4 h",0.3767
same,"Fig. 3a level, single animals 1-3","IV, Time 4 h",BLQ and 0.597 and 0.533
same,"Fig. 3b level, MEAN","IV, Time 4 h",104
same,"Fig. 3b level, single animals 1-3","IV, Time 4 h",76 and 112 and 124
same,"Fig. 3a level, MEAN","IV, Time 8 h",0
same,"Fig. 3a level, single animals 1-3","IV, Time 8 h",BLQ
same,"Fig. 3b level, MEAN","IV, Time 8 h",25.5467
same,"Fig. 3b level, single animals 1-3","IV, Time 8 h",7.74 and 27.5 and 41.4
same,"Fig. 3a level, MEAN","IV, Time 24 h",0
same,"Fig. 3a level, single animals 1-3","IV, Time 24 h",BLQ
same,"Fig. 3b level, MEAN","IV, Time 24 h",3
same,"Fig. 3b level, single animals 1-3","IV, Time 24 h",2.68 and 4.25 and 2.07
same,"B/P, Brian/Plasma","P.O., Time 0.25 h, individual animals",60.8033 and 75.265
same,"B/P, Brian/Plasma","P.O., Time 0.5 h, individual animals",154.065 and 93.9339
same,"B/P, Brian/Plasma","P.O., Time 1 h, individual animals",105.807 and 124.313
same,"B/P, Brian/Plasma","P.O., Time 2 h, individual animals",113.451 and 103.8
same,"B/P, Brian/Plasma","P.O., Time 4 h, individual animals",108.623 and 135.516
same,"B/P, Brian/Plasma","P.O., Time 8 h, individual animals",133.365 and 145.604
same,"Fig. 3b level, MEAN","PO, Time 0.25 h",9743
same,"Fig. 3b level, single animals 1-3","PO, Time 0.25 h",7893 and 7279 and 14057
same,"Fig. 3b level, MEAN","PO, Time 0.5 h",16210.7
same,"Fig. 3b level, single animals 1-3","PO, Time 0.5 h",13095 and 20145 and 15392
same,"Fig. 3b level, MEAN","PO, Time 1 h",30964
same,"Fig. 3b level, single animals 1-3","PO, Time 1 h",31243 and 27952 and 33697
same,"Fig. 3a level, MEAN","PO, Time 2 h",278
same,"Fig. 3a level, single animals 1-3","PO, Time 2 h",318 and 259 and 257
same,"Fig. 3b level, MEAN","PO, Time 2 h",29203.3
same,"Fig. 3b level, single animals 1-3","PO, Time 2 h",31592 and 29359 and 26659
same,"Fig. 3a level, MEAN","PO, Time 4 h",203.667
same,"Fig. 3a level, single animals 1-3","PO, Time 4 h",163 and 258 and 190
same,"Fig. 3b level, MEAN","PO, Time 4 h",24280.3
same,"Fig. 3b level, single animals 1-3","PO, Time 4 h",19042 and 28003 and 25796
same,"Fig. 3a level, MEAN","PO, Time 8 h",44.4333
same,"Fig. 3a level, single animals 1-3","PO, Time 8 h",55.2 and 45.3 and 32.8
same,"Fig. 3b level, MEAN","PO, Time 8 h",5756
same,"Fig. 3b level, single animals 1-3","PO, Time 8 h",6451 and 6039 and 4778
same,"Fig. 3a level, MEAN","PO, Time 24 h",0
same,"Fig. 3a level, single animals 1-3","PO, Time 24 h",0
same,"Fig. 3b level, MEAN","PO, Time 24 h",10.0733
same,"Fig. 3b level, single animals 1-3","PO, Time 24 h",18.9 and 6.07 and 5.25
same,"B/P, Brian/Plasma","i.v., Time 0.083 h, individual animals",71.1336 and 48.9012
same,"B/P, Brian/Plasma","i.v., Time 0.25 h, individual animals",117.877 and 123.138
same,"B/P, Brian/Plasma","i.v., Time 0.5 h, individual animals",191.891 and 134.551
same,"B/P, Brian/Plasma","i.v., Time 1 h, individual animals",123.104 and 140.908
same,"B/P, Brian/Plasma","i.v., Time 2 h, individual animals",102.433 and 239.982 and 206.167
same,"B/P, Brian/Plasma","i.v., Time 4 h, individual animals",232.498
same,Kp at 0.083 h,"brain, iv, 1 mg/Kg, i.v., Time 0.083 h, individual animals, read-out: B/P, Brian/Plasma",71.3
same,Kp at 0.083 h,"brain, iv, 1 mg/Kg, i.v., Time 0.083 h, mean, read-out: B/P, Brian/Plasma, Mean",71.2
same,Kp at 0.25 h,"brain, iv, 1 mg/Kg, i.v., Time 0.25 h, individual animals, read-out: B/P, Brian/Plasma",125
same,Kp at 0.25 h,"brain, iv, 1 mg/Kg, i.v., Time 0.25 h, mean, read-out: B/P, Brian/Plasma, Mean",122
same,Kp at 0.5 h,"brain, iv, 1 mg/Kg, i.v., Time 0.5 h, individual animals, read-out: B/P, Brian/Plasma",128
same,Kp at 0.5 h,"brain, iv, 1 mg/Kg, i.v., Time 0.5 h, mean, read-out: B/P, Brian/Plasma, Mean",151
same,Kp at 1 h,"brain, iv, 1 mg/Kg, i.v., Time 1 h, individual animals, read-out: B/P, Brian/Plasma",178
same,Kp at 1 h,"brain, iv, 1 mg/Kg, i.v., Time 1 h, mean, read-out: B/P, Brian/Plasma, Mean",159
same,Kp at 2 h,"brain, iv, 1 mg/Kg, i.v., Time 2 h, mean, read-out: B/P, Brian/Plasma, Mean",183
same,Kp at 4 h,"brain, iv, 1 mg/Kg, i.v., Time 4 h, individual animals, read-out: B/P, Brian/Plasma",188
same,Kp at 4 h,"brain, iv, 1 mg/Kg, i.v., Time 4 h, mean, read-out: B/P, Brian/Plasma, Mean",210
same,Kp at 0.25 h,"brain, po, 30 mg/Kg, P.O., Time 0.25 h, individual animals, read-out: B/P, Brian/Plasma",64.5
same,Kp at 0.25 h,"brain, po, 30 mg/Kg, P.O., Time 0.25 h, mean, read-out: B/P, Brian/Plasma, Mean",66.9
same,Kp at 0.5 h,"brain, po, 30 mg/Kg, P.O., Time 0.5 h, individual animals, read-out: B/P, Brian/Plasma",122
same,Kp at 0.5 h,"brain, po, 30 mg/Kg, P.O., Time 0.5 h, mean, read-out: B/P, Brian/Plasma, Mean",123
same,Kp at 1 h,"brain, po, 30 mg/Kg, P.O., Time 1 h, individual animals, read-out: B/P, Brian/Plasma",125
same,Kp at 1 h,"brain, po, 30 mg/Kg, P.O., Time 1 h, mean, read-out: B/P, Brian/Plasma, Mean",118
same,Kp at 2 h,"brain, po, 30 mg/Kg, P.O., Time 2 h, individual animals, read-out: B/P, Brian/Plasma",99.4
same,Kp at 2 h,"brain, po, 30 mg/Kg, P.O., Time 2 h, mean, read-out: B/P, Brian/Plasma, Mean",106
same,Kp at 4 h,"brain, po, 30 mg/Kg, P.O., Time 4 h, individual animals, read-out: B/P, Brian/Plasma",117
same,Kp at 4 h,"brain, po, 30 mg/Kg, P.O., Time 4 h, mean, read-out: B/P, Brian/Plasma, Mean",120
same,Kp at 8 h,"brain, po, 30 mg/Kg, P.O., Time 8 h, individual animals, read-out: B/P, Brian/Plasma",117
same,Kp at 8 h,"brain, po, 30 mg/Kg, P.O., Time 8 h, mean, read-out: B/P, Brian/Plasma, Mean",132
same,half-life,"brain, IV 1 mg/kg, read-out: Half-life in brain (converted)",1.8 h
same,half-life,"brain, PO 30 mg/kg, read-out: Half-life in brain (converted)",4.2 h
same,half-life,"plasma, IV 1 mg/kg, read-out: Half-life in plasma (converted)",0.6 h
same,half-life,"plasma, PO 30 mg/kg, read-out: Half-life in plasma (converted)",2.2 h
